Measured values as given in patent US11008572B2, “Methods and compositions for modulating splicing” (SKYHAWK THERAPEUTICS, INC., priority 2017, dated 2021).

Each compound was assayed on A-673 cells (assay: Cell viability, crystal violet staining). Details: Homo sapiens, A673, cell viability, read-out: A-673 IC50 (nM) Cell viability.
Type: cell-based
Method: To measure cell viability, cells were plated in 96-well plastic tissue culture plates at a density of 5×10^3 cells/well. Twenty-four hours after plating, cells were treated with various SMSMs. After 72 hours, the cell culture media were removed and plates were stained with […] of a solution containing 0.5% crystal violet and 25% methanol, rinsed with deionized water, dried overnight, and resuspended in […] citrate buffer (0.1 M sodium citrate in 50% ethanol) to assess plating efficiency. Intensity of crystal violet staining, assessed at 570 nm and quantified using a Vmax Kinetic Microplate Reader and Softmax software (Molecular Devices Corp., Menlo Park, Calif.), were directly proportional to cell number. Data were normalized to vehicle-treated cells and were presented as the mean±SE from representative experiments. SMSMs that are effective were determined for various cells lines.
A-673 cell viability […], splicing (IC50) and brain AUC/Plasma AUC of SMSMs were determined. As shown in the tables below SMSMs had high CNS exposure.

SMILES | IC50 [nM]
CN(c1ccc(-c2ccc(-n3cnc(C#N)c3)cc2O)nn1)[C@H]1C[C@]2(C)CC[C@](C)(C1)N2 [compound 196, 1-(4-(6-(((1R,3s,5S)-1,5-dimethyl-8-azabicyclo[3.2.1]octan-3-yl)(methyl)amino)pyridazin-3-yl)-3-hydroxyphenyl)-1H-imidazole-4-carbonitrile] | 251 to 500
CN(c1ccc(-c2ccc(-c3cnn(CF)c3)cc2O)nn1)[C@H]1C[C@]2(C)CC[C@](C)(C1)N2 [compound 174, 2-(6-(((1R,3s,5S)-1,5-dimethyl-8-azabicyclo[3.2.1]octan-3-yl)(methyl)amino)pyridazin-3-yl)-5-(1-(fluoromethyl)-1H-pyrazol-4-yl)phenol] | < 10
CN(c1ccc(-c2ccc(-n3cc(F)cn3)cc2O)nn1)[C@H]1C[C@]2(C)CC[C@](C)(C1)N2 [compound 175, 2-(6-(((1R,3s,5S)-1,5-dimethyl-8-azabicyclo[3.2.1]octan-3-yl)(methyl)amino)pyridazin-3-yl)-5-(4-fluoro-1H-pyrazol-1-yl)phenol] | 10 to 100
CN(c1ccc(-c2cc(F)c(-c3ccn(CF)c(=O)c3)cc2O)nn1)[C@H]1C[C@]2(C)CC[C@](C)(C1)N2 [compound 193, 4-(4-(6-(((1R,3s,5S)-1,5-dimethyl-8-azabicyclo[3.2.1]octan-3-yl)(methyl)amino)pyridazin-3-yl)-2-fluoro-5-hydroxyphenyl)-1-(fluoromethyl)pyridin-2(1H)-one] | < 10
[2H]C([2H])([2H])Oc1cc(-c2cc(O)c(-c3ccc(N(C)[C@H]4C[C@]5(C)CC[C@](C)(C4)N5)nn3)cc2F)cnn1 [compound 206, 2-(6-(((1R,3s,5S)-1,5-dimethyl-8-azabicyclo[3.2.1]octan-3-yl)(methyl)amino)pyridazin-3-yl)-4-fluoro-5-(6-(methoxy-d3)pyridazin-4-yl)phenol] | < 10
COc1cncc(-c2ccc(-c3ccc(N(C)[C@H]4C[C@]5(C)CC[C@](C)(C4)N5)nn3)c(O)c2)c1 [compound 211, 2-(6-(((1R,3s,5S)-1,5-dimethyl-8-azabicyclo[3.2.1]octan-3-yl)(methyl)amino)pyridazin-3-yl)-5-(5-methoxypyridin-3-yl)phenol] | 251 to 500
CCN(c1ccc(-c2cc(F)c(-c3cn[nH]c3)cc2O)nn1)[C@H]1C[C@]2(C)CC[C@](C)(C1)N2 [compound 202, 2-(6-(((1R,3s,5S)-1,5-dimethyl-8-azabicyclo[3.2.1]octan-3-yl)(ethyl)amino)pyridazin-3-yl)-4-fluoro-5-(1H-pyrazol-4-yl)phenol] | 10 to 100
CN(c1ccc(-c2cc(F)c(-c3cc(=O)n(C)cn3)cc2O)nn1)[C@H]1C[C@]2(C)CC[C@](C)(C1)N2 [compound 198, 6-(4-(6-(((1R,3s,5S)-1,5-dimethyl-8-azabicyclo[3.2.1]octan-3-yl)(methyl)amino)pyridazin-3-yl)-2-fluoro-5-hydroxyphenyl)-3-methylpyrimidin-4(3H)-one] | < 10
CN(c1ccc(-c2ccc(-c3cc(O)nc(F)c3)cc2O)nn1)[C@H]1C[C@]2(C)CC[C@](C)(C1)N2 [compound 190, 4-(4-(6-(((1R,3s,5S)-1,5-dimethyl-8-azabicyclo[3.2.1]octan-3-yl)(methyl)amino)pyridazin-3-yl)-3-hydroxyphenyl)-6-fluoropyridin-2-ol] | 101 to 250
CCN(c1ccc(-c2ccc(-c3cn[nH]c3)cc2O)nn1)[C@H]1C[C@]2(C)CC[C@](C)(C1)N2 [compound 201, 2-(6-(((1R,3s,5S)-1,5-dimethyl-8-azabicyclo[3.2.1]octan-3-yl)(ethyl)amino)pyridazin-3-yl)-5-(1H-pyrazol-4-yl)phenol] | 10 to 100
CN(c1ccc(-c2ccc(-n3cnc(F)c3)cc2O)nn1)[C@H]1C[C@]2(C)CC[C@](C)(C1)N2 [compound 176, 2-(6-(((1R,3s,5S)-1,5-dimethyl-8-azabicyclo[3.2.1]octan-3-yl)(methyl)amino)pyridazin-3-yl)-5-(4-fluoro-1H-imidazol-1-yl)phenol] | 10 to 100
[2H]C([2H])([2H])Oc1cc(-c2ccc(-c3ccc(N(C)[C@H]4C[C@]5(C)CC[C@](C)(C4)N5)nn3)c(O)c2)cnn1 [compound 205, 2-(6-(((1R,3s,5S)-1,5-dimethyl-8-azabicyclo[3.2.1]octan-3-yl)(methyl)amino)pyridazin-3-yl)-5-(6-(methoxy-d3)pyridazin-4-yl)phenol] | < 10
CN(c1ccc(-c2cc(F)c(-n3cnc(C#N)c3)cc2O)nn1)[C@H]1C[C@]2(C)CC[C@](C)(C1)N2 [compound 197, 1-(4-(6-(((1R,3s,5S)-1,5-dimethyl-8-azabicyclo[3.2.1]octan-3-yl)(methyl)amino)pyridazin-3-yl)-2-fluoro-5-hydroxyphenyl)-1H-imidazole-4-carbonitrile] | > 1000

Same assay, conditions: Homo sapiens, A673, cell viability, read-out: A-673 IC50 (nM), Cell viability

SMILES | IC50 [nM]
Cc1ncc(-c2cc(O)c(-c3ccc(N(C)[C@@H]4C[C@H]5CCC[C@@H](C4)N5)nn3)cc2F)o1 [compound 274, 2-(6-(((1R,3s,5S)-9-azabicyclo[3.3.1]nonan-3-yl)(methyl)amino)pyridazin-3-yl)-4-fluoro-5-(2-methyloxazol-5-yl)phenol] | < 10
[2H]C([2H])([2H])Oc1cc(-c2ccc(-c3ccc(N(C)[C@H]4C[C@]5(C)CCC[C@](C)(C4)N5)nn3)c(O)c2)cnn1 [compound 268, 2-(6-(((1R,3s,5S)-1,5-dimethyl-9-azabicyclo[3.3.1]nonan-3-yl)(methyl)amino)pyridazin-3-yl)-5-(6-(methoxy-d3)pyridazin-4-yl)phenol] | < 10
CN(c1ccc(-c2ccc(-c3cc[nH]c(=O)c3)cc2O)nn1)[C@@H]1C[C@H]2CCC[C@@H](C1)N2 [compound 293, 4-(4-(6-(((1R,3s,5S)-9-azabicyclo[3.3.1]nonan-3-yl)(methyl)amino)pyridazin-3-yl)-3-hydroxyphenyl)pyridin-2(1H)-one] | 10 to 100
C[C@]12CC[C@](C)(C[C@@H](N(c3ccc(-c4ccc(-c5cn[nH]c5)cc4O)nn3)C3CC3)C1)N2 [compound 302, 2-(6-(cyclopropyl((1R,3s,5S)-1,5-dimethyl-8-azabicyclo[3.2.1]octan-3-yl)amino)pyridazin-3-yl)-5-(1H-pyrazol-4-yl)phenol] | 10 to 100
CN(c1ccc(-c2cc3cc(C(=O)NC4CC4)oc3cc2O)nn1)[C@@H]1C[C@H]2CCC[C@@H](C1)N2 [compound 299, 5-(6-(((1R,3s,5S)-9-azabicyclo[3.3.1]nonan-3-yl)(methyl)amino)pyridazin-3-yl)-N-cyclopropyl-6-hydroxybenzofuran-2-carboxamide] | 10 to 100
CN(c1ccc(-c2ccc(-c3ccn(C)c(=O)n3)cc2O)nn1)[C@H]1C[C@]2(C)CCC[C@](C)(C1)N2 [compound 305, 4-(4-(6-(((1R,3s,5S)-1,5-dimethyl-9-azabicyclo[3.3.1]nonan-3-yl)(methyl)amino)pyridazin-3-yl)-3-hydroxyphenyl)-1-methylpyrimidin-2(1H)-one] | 101 to 250
Cc1ccc(-c2ccc(-c3ccc(N(C)[C@@H]4C[C@H]5CC[C@@H](C4)N5)nn3)c(O)c2)cn1 [compound 236, 2-(6-(((1R,3s,5S)-8-azabicyclo[3.2.1]octan-3-yl)(methyl)amino)pyridazin-3-yl)-5-(6-methylpyridin-3-yl)phenol] | 101 to 250
CN(c1ccc(-c2ccc(-c3cnn(C(F)F)c3)cc2O)nn1)[C@@H]1C[C@H]2CCC[C@@H](C1)N2 [compound 301, 2-(6-(((1R,3s,5S)-9-azabicyclo[3.3.1]nonan-3-yl)(methyl)amino)pyridazin-3-yl)-5-(1-(difluoromethyl)-1H-pyrazol-4-yl)phenol] | 10 to 100
CN(c1ccc(-c2ccc(-c3cnn(C)c(=O)c3)cc2O)nn1)[C@@H]1C[C@H]2CCC[C@@H](C1)N2 [compound 280, 5-(4-(6-(((1R,3s,5S)-9-azabicyclo[3.3.1]nonan-3-yl)(methyl)amino)pyridazin-3-yl)-3-hydroxyphenyl)-2-methylpyridazin-3(2H)-one] | 10 to 100
CN(C)C(=O)c1cc2cc(O)c(-c3ccc(N(C)[C@@H]4C[C@H]5CCC[C@@H](C4)N5)nn3)cc2o1 [compound 295, 6-(6-(((1R,3s,5S)-9-azabicyclo[3.3.1]nonan-3-yl)(methyl)amino)pyridazin-3-yl)-5-hydroxy-N,N-dimethylbenzofuran-2-carboxamide] | 251 to 500
C[C@]12CCC[C@](C)(C[C@@H](Oc3ccc(-c4cc(F)c(-c5cn[nH]c5)cc4O)nn3)C1)N2 [compound 263, 2-(6-(((1R,3s,5S)-1,5-dimethyl-9-azabicyclo[3.3.1]nonan-3-yl)oxy)pyridazin-3-yl)-4-fluoro-5-(1H-pyrazol-4-yl)phenol] | < 10
CN(c1ccc(-c2cc(F)c(-c3cnn(C)c(=O)c3)cc2O)nn1)[C@@H]1C[C@H]2CCC[C@@H](C1)N2 [compound 286, 5-(4-(6-(((1R,3s,5S)-9-azabicyclo[3.3.1]nonan-3-yl)(methyl)amino)pyridazin-3-yl)-2-fluoro-5-hydroxyphenyl)-2-methylpyridazin-3(2H)-one] | < 10
CN(c1ccc(-c2ccc(-n3cnnc3)cc2O)nn1)[C@@H]1C[C@H]2CC[C@@H](C1)N2 [compound 235, 2-(6-(((1R,3s,5S)-8-azabicyclo[3.2.1]octan-3-yl)(methyl)amino)pyridazin-3-yl)-5-(4H-1,2,4-triazol-4-yl)phenol] | > 1000

Same assay, conditions: Homo sapiens, A673, read-out: A-673 cell viability (IC50)

SMILES | IC50 [nM]
CN(c1ccc(-c2cc(F)c(-c3ccn(CF)c(=O)c3)cc2O)nn1)[C@H]1C[C@]2(C)CC[C@](C)(C1)N2 [compound 193, 4-(4-(6-(((1R,3s,5S)-1,5-dimethyl-8-azabicyclo[3.2.1]octan-3-yl)(methyl)amino)pyridazin-3-yl)-2-fluoro-5-hydroxyphenyl)-1-(fluoromethyl)pyridin-2(1H)-one] | < 3

Same assay, conditions: cell viability, read-out: A-673 IC50 (nM), Cell viability

SMILES | IC50 [nM]
Oc1cc(-c2cn[nH]c2)ccc1-c1ccc(O[C@@H]2C[C@H]3CCC[C@@H](C2)N3)nn1 [compound 276, 2-(6-(((1R,3s,5S)-9-azabicyclo[3.3.1]nonan-3-yl)oxy)pyridazin-3-yl)-5-(1H-pyrazol-4-yl)phenol] | 101 to 250
